Assay results: patent US8524898B2, “Proton acceptor iminium/carbocation-type coupling agents” (Luxembourg Bio Technologies Ltd., priority 2007, dated 2013)
Structures can show the parent of a compound that is named as a salt.

Experiments:
[1] = Maximal solubility of coupling agents in DMF; conditions: for Molarity: calculated molarity in DMF; for Wt/ml: maximal solubility, mass of agent per volume of DMF

Compound	Molarity [1]	Wt/ml [1]	melting point
1-((dimethylimino)(morpholino)methyl)3-H-6-chlorobenzo[1,2,3]triazolo-1-ium-3-olate hexafluorophosphate [6-Cl-HDMB]	1.0	0.456	–
1-((dimethylimino)(morpholino)methyl)3-H-6-trifluoromethylbenzo[1,2,3]-triazolo-1-ium-3-olate hexafluorophosphate [6-CF3HDMB]	1.02	0.475	–
1-((dimethylimino)(morpholino)methyl)3-H-[1,2,3]triazolo[4,5-b]pyridine-1-3-olate hexafluorophosphate [HDMA]	–	0.285	–
CN(C)C(n1n[n+]([O-])c2ccc(Cl)cc21)=[N+]1CCCC1 (as salt: phosphate)	–	–	192 to 193 °C
O=c1ccccn1OC(N1CCOCC1)=[N+]1CCCC1 (as salt: phosphate)	–	–	145 to 146 °C (dec.)
CN(C)C(O/N=C(\C#N)c1ccccn1)=[N+](C)C (as salt: phosphate)	–	–	169 to 171 °C
C[N+](C)=C(ON=C(C#N)C#N)N1CCOCC1 (as salt: phosphate) [HDMODC, 1-[(1-(dicyanomethyleneaminooxy)-dimethylamino-morpholinomethylene)]methanaminium hexafluorophosphate]	–	–	118 to 119 °C
CCOC(=O)C(C#N)=NOC(N(C)C)=[N+]1CCCC1 (as salt: phosphate) [HDmPyOCC, 1-[(1-(Cyano-2-ethoxy-2-oxoethylideneaminooxy)-dimethylamino-pyrrolodinomethylene)]methanaminium hexafluorophosphate]	–	–	126 to 127 °C (dec.)
CN(C)C(ON=C(C#N)C#N)=[N+]1CCCC1 (as salt: phosphate) [HDmPyODC, 1-[(1-(dicyanomethylideneaminooxy)-dimethylamino-pyrrolodinomethylene)]methanaminium hexafluorophosphate]	–	–	146 to 147 °C (dec.)
[O-][n+]1nn(C(N2CCCC2)N2CCOCC2)c2cccnc21 (centres unmarked) (as salt: phosphate) [HMPyA, 1-(morpholino(pyrrolidinium-1-ylidene)methyl)-1H-[1,2,3]triazolo[4,5-I]pyridine 3-oxide hexafluorophosphate]	–	–	206 to 208 °C (dec.)
CCOC(=O)/C(C#N)=N/OC(N1CCOCC1)=[N+]1CCCC1 (as salt: phosphate) [HMPyOCC, 1-((1-cyano-2-ethoxy-2-oxoethylideneaminooxy)(morpholino)methylene) pyrrolidinium hexafluorophosphate]	–	–	171 to 172 °C
CCOC(=O)/C(C#N)=N/OC(N(C)C)N(C)C (as salt: phosphate) [HTOCC, O-[Cyano(ethoxycarbonyl)methylidene)amino]-1,1,3,3-tetramethyluronium Hexafluorophosphate]	–	–	135 to 137 °C (dec.)
